Results reported in patent US9845323B2, “2-(1,3,4-oxadiazol-2-yl)-7-oxo-1,6-diazabicyclo[3.2.1 ]octane derivatives and their use as antibacterial agents” (WOCKHARDT LIMITED, priority 2014, dated 2017).
In brackets after ≈: the same amount, converted by molar mass. Like-named read-outs stand apart in the source and are kept apart here.

Tests used:
[1] = test system: K. Pneomoniae S48 (NDM, SHV, TEM); test: Agar dilution MIC (CLSI), compound alone; type: cell-based, K. pneumoniae; details: Klebsiella pneumoniae
Description: (§1) The biological activity of representative compounds according to the invention against various bacterial strains was investigated. In a typical study, overnight grown bacterial cultures were diluted appropriately and inoculated on the agar media containing doubling dilutions of the test compounds. Observations for growth or no growth was performed after 16-20 hours of incubation at 35±2° C. in the ambient air. The overall procedure was performed as per Clinical and Laboratory Standards Institute (CLSI) recommendations, (Clinical and Laboratory Standards Institute (CLSI), Performance Standards for Antimicrobial Susceptibility Testing, 20th Informational Supplement, M 07-A9, Volume 32, No. 2, 2012). Molten Mueller Hinton Agar (BD, USA) containing serial dilutions of each antibacterial agent were poured on to the plates and allowed to solidify. Appropriate suspensions from the freshly grown cultures were prepared in normal saline so that about 10^4 CFU/spot of the organism was delivered on to the drug containing agar plates using automated multipoint inoculator (Mast, UK). The plates were incubated in Biochemical oxygen demand (BOD) incubator at 37° C. for 18 hours and then examined for growth.

[2] = test system: Class C beta-lactamase CMY/DHA (E. coli M50); test: Beta-lactamase enzyme inhibition (Nitrocefin, crude enzyme); type: biochemical; details: Nitrocefin 100 μM
Description: (§2) Absorbance was measured at 485 nm by UV-spectrophotometer. The IC50 was calculated by plotting absorbance against concentration through Sigmoidal dose response curve using Graph Pad software.

[3] = molecular target: T1, Class D beta-lactamase OXA 23 (A baumannii NCTC 13301) (Acinetobacter baumannii, UniProt Q9L4P2); test: as above; type: biochemical; details: A baumannii NCTC 13301 (OXA 23), Nitrocefin 100 μM
T1 construct: preincubated mixture of crude enzyme and the compounds; endogenous in cells; host or cells: A. baumannii NCTC 13301 (crude enzyme preparation)
T1 sequence (Q9L4P2 18-273): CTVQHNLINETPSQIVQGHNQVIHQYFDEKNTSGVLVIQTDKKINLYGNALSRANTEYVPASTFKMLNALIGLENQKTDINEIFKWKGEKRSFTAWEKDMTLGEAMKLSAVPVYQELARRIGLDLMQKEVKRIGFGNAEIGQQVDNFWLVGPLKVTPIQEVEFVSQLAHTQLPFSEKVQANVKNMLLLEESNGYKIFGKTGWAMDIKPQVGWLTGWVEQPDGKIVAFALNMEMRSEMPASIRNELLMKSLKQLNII
Description: as §2

[4] = molecular target: Class A beta-lactamase SHV 18 (K. pneumoniae ATCC 700603) (Klebsiella pneumoniae, UniProt P0AD64); test: as above; type: biochemical; details: read-out: Beta-lactamase enzyme inhibition IC50, K. pneumoniae ATCC 700603 (SHV 18), Nitrocefin 100 μM
Chain of Class A beta-lactamase SHV 18 (K. pneumoniae ATCC 700603) (P0AD64 22-286 limits assumed): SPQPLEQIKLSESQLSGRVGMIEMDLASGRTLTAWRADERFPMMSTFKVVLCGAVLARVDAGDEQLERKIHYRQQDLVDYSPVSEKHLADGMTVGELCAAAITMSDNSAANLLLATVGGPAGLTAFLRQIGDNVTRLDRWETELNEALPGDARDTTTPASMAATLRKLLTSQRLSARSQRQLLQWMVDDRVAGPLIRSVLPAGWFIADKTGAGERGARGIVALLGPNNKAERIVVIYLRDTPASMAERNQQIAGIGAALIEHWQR
Description: as §2

[5] = test system: E. coli NCTC 13353 (CTX-M15, OXA-1); test: Agar dilution MIC (CLSI), compound alone; type: cell-based; details: Escherichia coli
Description: as §1

[6] = test system: K. pneumoniae H521 (KPC, SHV, TEM); test: Agar dilution MIC (CLSI), compound alone; type: cell-based; details: Klebsiella pneumoniae
Description: as §1

[7] = K. Pneomoniae S48 (NDM, SHV, TEM), compound alone, Table 2, read-out: MIC
[8] = NCTC13353, E. coli NCTC 13353 (CTX-M15, OXA-1), compound alone, Table 2, read-out: MIC
[9] = K. pneumoniae H521 (KPC, SHV, TEM), compound alone, Table 2, read-out: MIC

Compound	MIC [1]	IC50 [2]	IC50 [3]	IC50 [4]	MIC ([5]; NCTC13353)	MIC [6]	MIC [1, 7]	MIC [5, 8]	MIC [6, 9]	MIC ([1]; 18 h, K. Pneomoniae S48 (NDM, SHV, TEM), compound alone, Table 2, read-out: MIC)	MIC ([5]; NCTC13353, 18 h, E. coli NCTC 13353 (CTX-M15, OXA-1), compound alone, Table 2, read-out: MIC)	MIC ([6]; 18 h, K. pneumoniae H521 (KPC, SHV, TEM), compound alone, Table 2, read-out: MIC)
O=C1N2C[C@@H](CC[C@H]2c2nnc(CC3CCNCC3)o2)N1OS(=O)(=O)O [Example 3, (2S,5R)-sulfuric acid mono-[2-(5-piperidin-4-ylmethyl-[1,3,4]-oxadiazol-2-yl)-7-oxo-1,6-diaza-bicyclo[3.2.1]oct-6-yl] ester]	> 32 µg/mL	20 nM	5720 nM	39 nM	> 32 µg/mL	> 32 µg/mL						
COc1ccc(Cc2nnc([C@@H]3CC[C@@H]4CN3C(=O)N4OS(=O)(=O)O)o2)cc1 [Example 14, (2S,5R)-sulfuric acid mono-{2-[5-(4-methoxy-benzyl)-[1,3,4]-oxadiazol-2-yl]-7-oxo-1,6-diaza-bicyclo[3.2.1]oct-6-yl} ester]		13 nM	80 nM				> 32 µg/mL	> 32 µg/mL	> 32 µg/mL			
O=C1N2C[C@@H](CC[C@H]2c2nnc(CC(c3ccccc3)c3ccccc3)o2)N1OS(=O)(=O)O [Example 9, (2S,5R)-sulfuric acid mono-{2-[5-(2,2-diphenyl-ethyl)-[1,3,4]-oxadiazol-2-yl]-7-oxo-1,6-diaza-bicyclo[3.2.1]oct-6-yl} ester]			240 nM	4 nM			> 32 µg/mL	> 32 µg/mL	> 32 µg/mL			
O=C(O)[C@H]1/C(=C/CO)O[C@@H]2CC(=O)N21 [Clavulanic acid, clavulanic acid, reference compound]		> 10000 nM										
CN(C)c1ccc(Cc2nnc([C@@H]3CC[C@@H]4CN3C(=O)N4OS(=O)(=O)O)o2)cc1 [Example 12, (2S,5R)-sulfuric acid mono-{2-[5-(4-dimethylamino-benzyl)-[1,3,4]-oxadiazol-2-yl]-7-oxo-1,6-diaza-bicyclo[3.2.1]oct-6-yl} ester]		6 nM	97 nM	10 nM			> 32 µg/mL	> 32 µg/mL	> 32 µg/mL			
O=C1N2C[C@@H](CC[C@H]2c2nnc(Cc3ccc(O)cc3)o2)N1OS(=O)(=O)O [Example 13, (2S,5R)-sulfuric acid mono-{2-[5-(4-hydroxy-benzyl)-[1,3,4]-oxadiazol-2-yl]-7-oxo-1,6-diaza-bicyclo[3.2.1]oct-6-yl} ester]	> 32 µg/mL	0.1 nM	39 nM	13 nM	> 32 µg/mL	> 32 µg/mL						
O=C1N2C[C@@H](CC[C@H]2c2nnc(CC3CNCCN3)o2)N1OS(=O)(=O)O (stereo partly drawn) [Example 4, (2S,5R)-sulfuric acid mono[2-(5-(RS)-piperazin-2-ylmethyl-[1,3,4]-oxadiazol-2-yl)-7-oxo-1,6-diaza-bicyclo[3.2.1]oct-6-yl] ester]			410 nM	27 nM						> 32 µg/mL	> 32 µg/mL	> 32 µg/mL
O=C1N2C[C@@H](CC[C@H]2c2nnc(C[C@@H]3CCCN3)o2)N1OS(=O)(=O)O [Example 2, (2S,5R)-sulfuric acid mono-[2-(5-(S)-pyrrolidin-2-ylmethyl-[1,3,4]-oxadiazol-2-yl)-7-oxo-1,6-diaza-bicyclo[3.2.1]oct-6-yl] ester]			12900 nM	27 nM			32 µg/mL (≈ 85.7 µM)	> 32 µg/mL	> 32 µg/mL			
O=C1N2C[C@@H](CC[C@H]2c2nnc(Cc3ccc(Cl)cc3)o2)N1OS(=O)(=O)O [Example 10, (2S,5R)-sulfuric acid mono-{2-[5-(4-chloro-benzyl)-[1,3,4]-oxadiazol-2-yl]-7-oxo-1,6-diaza-bicyclo[3.2.1]oct-6-yl} ester]	> 32 µg/mL	10 nM	108 nM		> 32 µg/mL	> 32 µg/mL						
Nc1ccc(Cc2nnc([C@@H]3CC[C@@H]4CN3C(=O)N4OS(=O)(=O)O)o2)cc1 [Example 11, (2S,5R)-sulfuric acid mono-{2-[5-(4-amino-benzyl)-[1,3,4]-oxadiazol-2-yl]-7-oxo-1,6-diaza-bicyclo[3.2.1]oct-6-yl} ester]	32 µg/mL (≈ 80.9 µM)	13 nM	108 nM		> 32 µg/mL	> 32 µg/mL						
